Key:
[1] = system: MDA-MB 231 (human breast cancer); assay: Methyl-Tetrazolium viability assay, MDA-MB 231; type: cell-based; details: for MTT 24 h / MTT 48 h / MTT 72 h: Run 3 average
Description: Three different viability assays were chosen to complement each other and yielded results dependent on concentration and cell line: the Methyl Tetrazolium dye assay, the Sulforhodamine B fluorescent dye assay, and the Crystal Violet dye assay.
The Methyl-Tetrazolium dye assay measures the activity of enzymes in mitochondria. The dye precursor is taken up by cells, where it undergoes reduction to the purple formazan. It measures only the mitochondrial activity and, thus, it is not always a reliable indication of whether the cells themselves are alive or dead, since even a recently dead cell has […] enzyme activity in mitochondria. Intracellular glucose concentration, pH, and time before assay all affect the measurements.
(§1) The Methyl Tetrazolium, Sulforhodamine B, and Crystal Violet assays were used to assess cell viabilities. The incubation times were 24 hours, 48 hours, and 72 hours. The Nerium oleander extract Anvirzel™ (a hot water extract of oleander obtained from Salud Integral, Honduras) was tested in concentrations ranging from 0.01 ng/mL to 10 ng/mL.
(§2) Cells were detached by trypsinization (Trypsin-0.25% EDTA, Invitrogen, 25200-072) during the logarithmic phase of culture growth and plated in 96-well plates (18.000 cells/well) (Corning, Costar 359) in a final volume of 200 μl of medium per well. […] The absorbance was measured after 24 hours, 48 hours, and 72 hours of incubation.
For the Methyl-Tetrazolium assay, the dye (Sigma, M2128; 5 mg/mL, diluted in phosphate-buffered saline) was added to each well and plates were incubated for 3 hours at 37° C. After the end of the incubation period, the medium was discarded and the cells were rinsed with phosphate-buffered saline. Finally, the formazan crystals were dissolved in dimethylsulphoxide (Sigma, D4540).
(§3) The optical density of each plate was measured on a μQuant spectrophotometer and the data were analyzed with Gen5 software (μQuant Biomolecular Spectrophotometer MQX200 and Gen5™ Microplate Data Collection & Analysis software, BioTek® Instruments. Inc, April 2008). Absorbance was measured at 570 nm for all assays and a second wavelength was measured in order to subtract noise. For the Methyl-Tetrazolium assay this second wavelength was 630 nm and for the Sulforhodamine B and Crystal Violet assays it was 690 nm.

[2] = system: CALU-1 (non-small cell lung carcinoma); assay: Crystal Violet viability assay, CALU-1; type: cell-based, human
Description: The Sulforhodamine B and Crystal Violet assays provide information about protein and were used to complement the Methyl-Tetrazolium dye assay. […] It is used for the quantification of cellular proteins of cultured cells. The assay using Crystal Violet, a dye that binds electrostatically to proteins and stains DNA, provides a reliable, simple assay for measuring viability of cells.
as §1, §2
For the Crystal Violet assay, the medium was removed from the 96-well plates, the plates rinsed with PBS (Sigma, P3813) and then the cells were […] by the addition of 10% formalin (MERCK, 1.04003.2500) for 20 minutes at RT. Formalin was removed and 0.25% aqueous crystal violet (Sigma, HT901), dissolved in water, was added for 10 minutes at RT. Unbound Crystal Violet was rinsed by washing with water and finally 33% acetic acid was added to dissolve the dye.
as §3

N.N.[Cl][Pt][Cl] [cisplatin]
MTT 24 h Average ([1]; Run 1, 0.1 μg/ml CDDP): 0.019
MTT 48 h Average ([1]; Run 1, 0.1 μg/ml CDDP): 0.002
MTT 72 h Average ([1]; Run 1, 0.1 μg/ml CDDP): 0.04
MTT 24 h Average ([1]; Run 1, 1 μg/ml CDDP): 0.007
MTT 48 h Average ([1]; Run 1, 1 μg/ml CDDP): 0.004
MTT 72 h Average ([1]; Run 1, 1 μg/ml CDDP): 0.006
MTT 24 h Average ([1]; Run 1, 10 μg/ml CDDP): 0.015
MTT 48 h Average ([1]; Run 1, 10 μg/ml CDDP): 0.007
MTT 72 h Average ([1]; Run 1, 10 μg/ml CDDP): 0.015
MTT 24 h Average ([1]; Run 1, 100 μg/ml CDDP): 0.008
MTT 48 h Average ([1]; Run 1, 100 μg/ml CDDP): 0.008
MTT 72 h Average ([1]; Run 1, 100 μg/ml CDDP): 0.006
MTT 24 h Average ([1]; Run 2, 0.1 μg/ml CDDP): 0.044
MTT 48 h Average ([1]; Run 2, 0.1 μg/ml CDDP): 0.063
MTT 72 h Average ([1]; Run 2, 0.1 μg/ml CDDP): 0.106
MTT 24 h Average ([1]; Run 2, 1 μg/ml CDDP): 0.009
MTT 48 h Average ([1]; Run 2, 1 μg/ml CDDP): 0.007
MTT 72 h Average ([1]; Run 2, 1 μg/ml CDDP): 0.005
MTT 24 h Average ([1]; Run 2, 10 μg/ml CDDP): 0.039
MTT 48 h Average ([1]; Run 2, 10 μg/ml CDDP): 0.049
MTT 72 h Average ([1]; Run 2, 10 μg/ml CDDP): 0.07
MTT 24 h Average ([1]; Run 2, 100 μg/ml CDDP): 0.008
MTT 48 h Average ([1]; Run 2, 100 μg/ml CDDP): 0.006
MTT 72 h Average ([1]; Run 2, 100 μg/ml CDDP): 0.002
MTT 24 h ([1]; 0.1 μg/ml CDDP): 0.083
MTT 48 h ([1]; 0.1 μg/ml CDDP): 0.035
MTT 72 h ([1]; 0.1 μg/ml CDDP): 0.046
MTT 24 h ([1]; 1 μg/ml CDDP): 0.013
MTT 48 h ([1]; 1 μg/ml CDDP): 0.008
MTT 72 h ([1]; 1 μg/ml CDDP): 0.008
MTT 24 h ([1]; 10 μg/ml CDDP): 0.046
MTT 48 h ([1]; 10 μg/ml CDDP): 0.057
MTT 72 h ([1]; 10 μg/ml CDDP): 0.068
MTT 24 h ([1]; 100 μg/ml CDDP): 0.012
MTT 48 h ([1]; 100 μg/ml CDDP): 0.012
MTT 72 h ([1]; 100 μg/ml CDDP): 0.01
Average CVE 24 h ([2]; CALU-1 Run 1, 0.1 μg/ml CDDP): 0.554
Average CVE 48 h ([2]; CALU-1 Run 1, 0.1 μg/ml CDDP): 0.652
Average CVE 72 h ([2]; CALU-1 Run 1, 0.1 μg/ml CDDP): 0.441
Average CVE 24 h ([2]; CALU-1 Run 1, 1 μg/ml CDDP): 0.231
Average CVE 48 h ([2]; CALU-1 Run 1, 1 μg/ml CDDP): 0.661
Average CVE 72 h ([2]; CALU-1 Run 1, 1 μg/ml CDDP): 0.135
Average CVE 24 h ([2]; CALU-1 Run 1, 10 μg/ml CDDP): 0.421
Average CVE 48 h ([2]; CALU-1 Run 1, 10 μg/ml CDDP): 0.503
Average CVE 72 h ([2]; CALU-1 Run 1, 10 μg/ml CDDP): 0.157
Average CVE 24 h ([2]; CALU-1 Run 1, 100 μg/ml CDDP): 0.306
Average CVE 48 h ([2]; CALU-1 Run 1, 100 μg/ml CDDP): 0.409
Average CVE 72 h ([2]; CALU-1 Run 1, 100 μg/ml CDDP): 0.125
Average CVE 24 h ([2]; CALU-1 Run 2, 0.1 μg/ml CDDP): 0.484
Average CVE 48 h ([2]; CALU-1 Run 2, 0.1 μg/ml CDDP): 0.886
Average CVE 72 h ([2]; CALU-1 Run 2, 0.1 μg/ml CDDP): 0.786
Average CVE 24 h ([2]; CALU-1 Run 2, 1 μg/ml CDDP): 0.576
Average CVE 48 h ([2]; CALU-1 Run 2, 1 μg/ml CDDP): 0.563
Average CVE 72 h ([2]; CALU-1 Run 2, 1 μg/ml CDDP): 0.214
Average CVE 24 h ([2]; CALU-1 Run 2, 10 μg/ml CDDP): 0.64
Average CVE 48 h ([2]; CALU-1 Run 2, 10 μg/ml CDDP): 0.46
Average CVE 72 h ([2]; CALU-1 Run 2, 10 μg/ml CDDP): 0.254
Average CVE 24 h ([2]; CALU-1 Run 2, 100 μg/ml CDDP): 0.416
Average CVE 48 h ([2]; CALU-1 Run 2, 100 μg/ml CDDP): 0.352
Average CVE 72 h ([2]; CALU-1 Run 2, 100 μg/ml CDDP): 0.344
Average CVE 24 h ([2]; CALU-1 Run 3, 0.1 μg/ml CDDP, 24 h): 0.492
Average CVE 48 h ([2]; CALU-1 Run 3, 0.1 μg/ml CDDP, 48 h): 0.389
Average CVE 72 h ([2]; CALU-1 Run 3, 0.1 μg/ml CDDP, 72 h): 0.505
Average CVE 24 h ([2]; CALU-1 Run 3, 1 μg/ml CDDP, 24 h): 0.255
Average CVE 72 h ([2]; CALU-1 Run 3, 1 μg/ml CDDP, 72 h): 0.184
Average CVE 24 h ([2]; CALU-1 Run 3, 10 μg/ml CDDP, 24 h): 0.558
Average CVE 48 h ([2]; CALU-1 Run 3, 10 μg/ml CDDP, 48 h): 0.175
Average CVE 72 h ([2]; CALU-1 Run 3, 10 μg/ml CDDP, 72 h): 0.189
Average CVE 24 h ([2]; CALU-1 Run 3, 100 μg/ml CDDP, 24 h): 0.375
Average CVE 48 h ([2]; CALU-1 Run 3, 100 μg/ml CDDP, 48 h): 0.159
Average CVE 72 h ([2]; CALU-1 Run 3, 100 μg/ml CDDP, 72 h): 0.197

Reference: US20190343908A1, “Therapeutic Combination for the Treatment of Cancer” (Nerium Biotechnology Inc., priority 2011, published 2019)
